Test results as given in PMC10167227, “Lipid flipping in the omega-3 fatty-acid transporter” (Nature Communications, 2023).

Target: T1, drMfsd2a (Danio rerio isoform B Mfsd2a) (Danio rerio, UniProt Q6DEJ6, N214Q/N225Q/N509Q)
T1 construct: gene mfsd2ab; recombinant in Sf-9 insect cells, N-terminal 10xHis tag removed by TEV; truncated at D22 and D509; DDM-purified
T1 sequence (Q6DEJ6 22-509 N214Q/N225Q/N509Q): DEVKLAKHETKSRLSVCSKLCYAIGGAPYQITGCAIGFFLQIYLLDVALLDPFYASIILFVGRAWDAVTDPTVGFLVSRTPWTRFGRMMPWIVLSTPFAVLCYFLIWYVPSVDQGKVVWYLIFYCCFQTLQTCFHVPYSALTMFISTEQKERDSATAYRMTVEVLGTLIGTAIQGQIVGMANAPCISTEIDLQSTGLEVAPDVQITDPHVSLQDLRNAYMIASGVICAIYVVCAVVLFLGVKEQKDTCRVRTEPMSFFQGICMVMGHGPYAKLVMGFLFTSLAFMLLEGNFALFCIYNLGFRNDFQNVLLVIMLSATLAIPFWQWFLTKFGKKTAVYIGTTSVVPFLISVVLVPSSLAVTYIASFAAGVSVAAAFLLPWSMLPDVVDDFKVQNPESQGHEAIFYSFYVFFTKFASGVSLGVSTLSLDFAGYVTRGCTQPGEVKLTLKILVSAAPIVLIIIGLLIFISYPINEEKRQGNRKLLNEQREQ
Assay: single-particle cryo-EM structures of Fab complex
Format: binding
Details: co-purified endogenous lipid; identity modelled into lipid-like densities at four positions (1A, 1B, 2B, 3C); inward-facing; pH 8.0, 150 mM NaCl, 0.02% DDM

## CC/C=C\C/C=C\C/C=C\CCCCCCCC(=O)OC[C@@H](O)COP(=O)([O-])OCC[N+](C)(C)C [ALA-LPC]
  single-particle cryo-EM structures of Fab complex: We therefore modeled ALA-LPC into the four distinct lipid-like densities
